Test results published in US20030003583A1, “Regulation of transgene expression following AAV transduction” (priority 2001, published 2003).
Residues, ends and D or L forms follow the SMILES beside them. *: point of attachment. Cbz = O=C(OCc1ccccc1)*

Columns and labels:
proteasome = conditions: cited from earlier work
[1] = tested on: human type B synoviocytes infected with rAAV(mIL-10); experiment: Mouse IL-10 transgene expression (ELISA of supernatants) in human type B synoviocytes infected with rAAV(mIL-10); assay type: cell-based
Procedure: Synoviocytes were infected with rAAV on day 0. On day 1, cells were exposed to the indicated amounts of zLLL for 24 hours. Supernatants were harvested on days 3 and 7 and assayed by ELISA for mouse IL-10.
Synoviocytes were infected with rAAV on day 0. At various times (indicted by the arrows), some cells were exposed to 40 μM of zLLL for 24 hours (A) or to recombinant adenovirus lacking a transgene (B). Supernatants were harvested and assayed by ELISA for mouse IL-10.
Kwon, C. Mah, and A. Srivastava. 2000. Impaired intracellular trafficking of adeno-associated virus type 2 vectors limits efficient transduction of murine fibroblasts. J Virol 74:992-996) to determine whether human synoviocytes could be made to express a transgene following AAV-mediated gene transfer. […] This is inconsistent with the proposed mechanism of action of zLLL, that of increasing viral trafficking to the nucleus, as transgene expression should be stable once the viral genome reaches the nucleus and sufficient second strand synthesis occurs.
To further explore this finding, synovial cells were re-exposed to zLLL following the loss of transgene expression. […] In each case, expression peaked 2-3 days following exposure to zLLL and then dropped off. We were able to re-induce transgene expression as far out as 25 days after infection. We have not yet looked at further time points, but we can already conclude that the transgene persists in the synoviocytes for an extended period of time and that its expression can be regulated by zLLL.
This is inconsistent with the proposed mechanism of action of zLLL, that of increasing viral trafficking to the nucleus, as transgene expression should be stable once the viral genome reaches the nucleus and sufficient second strand synthesis occurs.
To further explore this finding, synovial cells were re-exposed to zLLL following the loss of transgene expression. […] In each case, expression peaked 2-3 days following exposure to zLLL and then dropped off. We were able to reinduce transgene expression as far out as 25 days after infection. We have not yet looked at further time points, but we can already conclude that the transgene persists in the synoviocytes for an extended period of time and that its expression can be regulated by zLLL.

[2] = tested on: RA synovium implanted into SCID mice; experiment: Luciferase expression in RA synovium implanted into SCID mice, injected with AAV(Luc), after in vivo zLLL; conditions: zLLL into the synovial tissue or intraperitoneally two weeks after AAV(Luc); tissue removed 48 hours later
Procedure: RA synovium was implanted into SCID mice. Two weeks later, synovial tissues were injected with 6.8×10^10 particles of AAV(Luc). Two weeks following rAAV administration, zLLL was administered in a 100 μl volume either directly into the synovial tissue or intraperitoneally. Synovial tissues were removed 48 hours later, homogenized, and assayed for luciferase content.
The optimal in vivo dose and route of administration is unclear from this preliminary study and will be addressed in the proposed experiments.

mouse lungs = conditions: in vivo; cited from earlier work
other cell types = conditions: cited from earlier work
[3] = tested on: human type B synoviocyte cultures infected with rAAV(mIL-4); experiment: Real-time PCR of transgene mRNA in human type B synoviocytes infected with rAAV(mIL-4); assay type: cell-based; conditions: 40 μM zLLL for 24 hours
Procedure: Human type B synoviocyte cultures were infected with rAAV(mIL-4). Ten days later, some cells were exposed to 40 μM of zLLL for 24 hours. Cells were harvested and RNA was extracted, reverse transcribed, and subjected to real-time PCR using a LightCycler™ System (Roche Molecular Biochemicals, Indianapolis, Ind.) with the FastStart DNA Master SYBR Green I reaction mix and gene specific primers. LIGHTCYCLER Quantification Software v5.32 was used to compare amplification in the samples during the log-linear phase. Data are normalized to the AAV(mIL-4) samples, which are given a value of 1. The ZLLL group was not infected with AAV (IL-4).
Synoviocytes transduced with AAV(mIL-4) were exposed to zLLL and RNA was extracted and subjected to real-time PCR. zLLL induced a 250-fold increase in mIL-4 mRNA with no increase in the constituitively-expressed gene, GAPDH (FIG. 4).

| SMILES | specificity for the proteasome / other proteases inhibited (proteasome) | transgene expression on re-exposure after loss of expression ([1]; 40 μM zLLL for 24 hours at various times) | expression of a mouse IL-10 transgene ([1]; 3 days following infection with rAAV, zLLL for 24 hours on day 1, dose dependent) | expression of mouse IL-10 transgene by day 7 ([1]; day 7 after infection, single 24 h zLLL exposure on day 1) | latest time after infection at which transgene expression was re-induced ([1]; days after infection) [days] | time of peak expression following exposure ([1]; following each exposure to zLLL) [days] | in vivo transgene (luciferase) expression [2] | rAAV-mediated transduction in mouse lungs (mouse lungs) | nuclear accumulation of rAAV particles and the rAAV genome (other cell types) | change in constitutively expressed gene GAPDH mRNA [3] | increase in mIL-4 mRNA ([3]; ten days after infection, normalized to AAV(mIL-4) samples) [fold] |
| --- | --- | --- | --- | --- | --- | --- | --- | --- | --- | --- | --- |
| CC(=O)N[C@@H](CSC(=O)[C@]1([C@@H](O)C(C)C)NC(=O)[C@H](C)[C@@H]1O)C(=O)O [Lactacystin] | high specificity for the proteasome | – | – | – | – | – | – | – | – | – | – |
| CC(C)C[C@@H](C=O)NC(=O)[C@H](CC(C)C)NC(=O)[C@H](CC(C)C)NC(=O)OCc1ccccc1 [zLLL, Carbobenzoxyl-L-leucyl-L-leucyl-L-leucinal] (Cbz-Leu-Leu-Leu-aldehyde) | can also inhibit certain lysosomal cysteine proteases and the calpains | could be repeatedly induced | dramatically enhanced | expression was lost | 25 | 2 to 3 | dramatically enhanced | enhance rAAV-mediated transduction | increase nuclear accumulation | no increase | 250 |
